Literature values, collected in patent US9808427B2, “Swallowable N-acetylcysteine tablets” (ZAMBON S.P.A., priority 2013, dated 2017).

Tests used:
[1] = 1200 mg per day (2 tablets of 600 mg)

For `CC(=O)N[C@@H](CS)C(=O)O` [NAC, N-acetylcysteine], the “efficacy and safety in long-term treatment of COPD” value [1] is listed as “effective and safe”, the “time to achieve pharmacologically active concentrations in pulmonary tissue and bronchial secretions” value (after taking the drug) is listed as “approximately 3 hours” and the “elimination of NAC and its metabolites” value (in vivo) is listed as “essentially via the kidneys”. For the same compound, the “absorption in the gastrointestinal tract” value (oral administration, man) was “quickly and completely absorbed”.
